In paper PMC8575619, “Cytotoxic and Antifungal Amides Derived from Ferulic Acid: Molecular Docking and Mechanism of Action” (BioMed Research International, 2021):
Values after ≈ are worked out from the molar mass of the structure shown. Where two headings read alike, the source gives them in different places.

Key:
Candida albicans CBS 562 [1] = assay: MIC by broth microdilution; type: cell-based; conditions: 24 h, N.A.: no activity
Method: (§1) Antifungal activity evaluations were performed using references strains of Candida spp., obtained from the Centraalbureau voor Schimmelcultures (CBS, Ultrecht, Netherlands): Candida albicans CBS 562, Candida tropicalis CBS 94, and Candida krusei CBS 573. Nystatin, Tween 80%, DMSO, caspofungin diacetate, and ergosterol were obtained from Sigma-Aldrich® (St. Louis, MO, EUA) and sorbitol (D-sorbitol anhydrous) from INLAB® (São Paulo, Brazil). All assays were performed in triplicate in three independent experiments. The culture medium used for maintenance of the microorganisms was Agar Sabouraud Dextrose (ASD). Inoculants were adjusted to a final concentration of 2.5 × 10^3 CFU/mL (Clinical and Laboratory Standards Institute, 2002). […]
(§2) MIC was determined by the microdilution technique, as previously described by the adapted Clinical and Laboratory Standards Institute (CLSI, 2002) method. The compounds were subjected to the microdilution technique in 96-well plates, with U bottom. The samples were dissolved with DMSO and sterile distilled water (up to 1.0 mL). Through serial dilutions, concentrations of the evaluated compounds ranging from 1000 μg/mL to 7.8 μg/mL. The culture sterility medium, the evaluated substances, and the microbial growth were carried out in parallel. The plates were closed and subjected to a temperature of 35 ± 2°C for 24 h. 1% TTC (2,3,5-triphenyl tetrazolium chloride, Sigma-Aldrich®, St. Louis, MO, EUA) was added to each well to confirm the presence of viable microorganisms. MIC was defined as the lowest concentration of the test substance that inhibits visible microbial growth.

[2] = test system: Candida tropicalis CBS 94; assay: Minimum fungicide concentration (MFC); type: cell-based; conditions: ≥ 4 fungistatic or <4 fungicide
Method: as §1
(§3) The minimum fungicide concentration (MFC) of the compounds was obtained after the interpretation of the MIC. Three (3) aliquots of 30 μL of supernatant were removed from the wells (where complete inhibition of fungal growth was analyzed) and placed in Petri dishes containing 15 mL of agar Sabouraud dextrose. The plates were incubated at 35 ± 2°C for 24 h for visual counting of colony forming units. To determine whether the compounds had fungistatic (MFC/MIC ≥ 4) or fungicidal (MFC/MIC < 4) activity, the MFC/MIC ratio was calculated.

Candida krusei CBS 573 = assay: Minimum fungicide concentration (MFC); type: cell-based; conditions: ≥ 4 fungistatic or <4 fungicide
Method: as §1, §3

MRC5 = assay: Cytotoxicity assay, alamar blue test (healthy cell line); type: cell-based, human; conditions: 72 h, value (95% confidence interval)
Method: (§4) HepG2 cells (human hepatocellular carcinoma), HCT116 (human colon carcinoma), HL-60 (human promyelocytic leukemia), and MRC5 (human lung fibroblast) obtained from the ATCC (Manassas, VA, USA) were used. Cells were cultured in cell culture bottles (75 cm 3, 250 mL volume), and media used were RPMI 1640 and supplemented with 10% fetal bovine serum. Cells were maintained in incubators with 5% CO2 atmosphere at 37°C. Cellular growth was monitored daily with the use of an inversion microscope. The medium was changed whenever cell growth reached the necessary confluence for nutrient renewal. For the maintenance of adhered cells, trypsin (0.25%) was used for the cells to detach from the walls of the bottles.
(§5) To assess the cytotoxicity of the substances, the alamar blue test was performed after 72 h of exposure with the test substances. Alamar blue, known as resazurin [62], is a fluorescent/colorimetric indicator with redox properties. The reduction in alamar blue reflects cell proliferation. This was initially used to indicate cell growth and/or viability in monitoring lymphocyte proliferation and currently has several applications. Initially, cells were plated in 96-well plates (100 μL/well of a solution of 0.3 × 10^6 cells/mL for cells in suspension and 0.7 × 10^5 cells/mL for adhered cells). After 24 h of incubation, the test substances dissolved in DMSO were added to each well and incubated for 72 h. Doxorubicin was used as a positive control. The negative control received the same amount of DMSO. Four hours before the end of the incubation period, 20 μL of the stock solution (0.312 mg/mL) of alamar blue (resazurin) was added to each well. Absorbances were measured at wavelengths of 570 nm (reduced) and 600 nm (oxidized) using a plate reader.

HCT116 = assay: Cytotoxicity assay, alamar blue test; type: cell-based, human; conditions: 72 h, value (95% confidence interval)
Method: as §4, §5

HL-60 = assay: Cytotoxicity assay, alamar blue test; type: cell-based, human; conditions: 72 h, value (95% confidence interval); for IC50: read-out: IC50 HL60
Method: as §4, §5

HepG2 cells = assay: Cytotoxicity assay, alamar blue test; type: cell-based, human; conditions: 72 h, value (95% confidence interval)
Method: as §4, §5

C. albicans CBS 562 = assay: Sorbitol assay (cell wall mechanism), microdilution; type: cell-based, Candida albicans; conditions: Candida albicans
Method: (1) Sorbitol Assay. The microdilution technique was performed in the presence of sorbitol (D-sorbitol, anhydrous) (INLAB laboratory), to determine the mode of action of the compounds on the cell wall of C. albicans CBS 562. For this test, the inoculum was prepared with sorbitol to a final concentration of 0.8 M. The plates were incubated at 35 ± 2°C, and readings were taken 24 h and 48 h after incubation. Caspofungin was used as positive control at an initial concentration of 5 mg/mL [68–70].

Candida albicans CBS 562 [3] = assay: Minimum fungicide concentration (MFC); type: cell-based; conditions: ≥ 4 fungistatic or <4 fungicide
Method: as §1, §3

[4] = test system: Candida strains (Candida albicans, C. tropicalis, and C. krusei); assay: Antifungal evaluation (MIC/MFC), statements for all Candida strains; type: cell-based, Candida spp.; conditions: stated for all Candida strains
Method: The antifungal activity (Table 2) of the ten amides was assessed via the minimum inhibitory concentration (MIC) which was determined using the microdilution methods against three species of Candida strains (Candida albicans, C. tropicalis, and C. krusei).
as §1, §2
as §3, with “units.” for “units. To determine whether the compounds had fungistatic (MFC/MIC ≥ 4) or fungicidal (MFC/MIC < 4) activity, the MFC/MIC ratio was calculated.”

Molecule | MIC C. albicans CBS 562 (Candida albicans CBS 562 [1]) | MIC/MFC reason C. tropicalis CBS 94 [2] | MIC/MFC reason C. krusei CBS 573 (Candida krusei CBS 573) | IC50 (MRC5) [µM] | IC50 MRC5 (MRC5) | IC50 (HCT116) [µM] | IC50 HCT116 (HCT116) | IC50 HL60 (HL-60) | IC50 (HL-60) [µM] | IC50 (HepG2 cells) [µM] | IC50 HEPG2 (HepG2 cells) | MIC (C. albicans CBS 562; CBS562, read-out: MIC With sorbitol) [µg/mL] | MIC (C. albicans CBS 562; CBS562, read-out: MIC Without sorbitol) [µg/mL] | MIC/MFC reason C. albicans CBS 562 (Candida albicans CBS 562 [3]) | MIC [4] [µM]
(E)-N-(4-chlorobenzyl)-3-(3-hydroxy-4-methoxyphenyl)acrylamide [Compound 9] | inactivity | 1 | 1 | > 78.7 | >25 µg/mL | > 78.7 | >25 µg/mL | 15.58 (9.26–26.20) μg/mL | 49 | > 78.7 | >25 µg/mL |  |  |  | 
(E)-N-cyclohexyl-3-(3-hydroxy-4-methoxyphenyl)acrylamide [Compound 4] |  |  |  | > 90.8 | >25 µg/mL | > 90.8 | >25 µg/mL | 18.84 (11.58–27.65) μg/mL | 68.4 | > 90.8 | >25 µg/mL |  |  |  | 
CC[C@H](C)C[C@H](C)CCCCCCCCC(=O)N[C@H]1C[C@@H](O)[C@@H](NCCN)NC(=O)[C@@H]2[C@@H](O)CCN2C(=O)[C@H]([C@H](O)CCN)NC(=O)[C@H]([C@H](O)[C@@H](O)c2ccc(O)cc2)NC(=O)[C@@H]2C[C@@H](O)CN2C(=O)[C@H]([C@@H](C)O)NC1=O [Caspofungin, reference compound] |  |  |  |  |  |  |  |  |  |  |  | 1 (≈ 0.915 µM) | 0.015 (≈ 0.0137 µM) |  | 
(E)-3-(3-hydroxy-4-methoxyphenyl)-N-(4-methylbenzyl)acrylamide [Compound 7] | inactive | 1 | 1 | > 84.1 | >25 µg/mL | > 84.1 | >25 µg/mL |  | 53.1 | > 84.1 | >25 µg/mL |  |  |  | 
(E)-3-(3-hydroxy-4-methoxyphenyl)-N-(4-methoxybenzyl)acrylamide [Compound 8] |  | 1 | 1 | 53.2 | 16.69 (13.18–21.13) μg/mL | > 79.8 | >25 µg/mL |  | 70.3 | 64.7 | 20.27 (15.94–25.77) μg/mL |  |  | 1 | 1590
(E)-N-benzyl-3-(3-hydroxy-4-methoxyphenyl)acrylamide [Compound 6] |  |  | 1 | 76.5 | 20.59 (16.22–26.13) μg/mL | 70.3 | 18.93 (13.48–26.57) μg/mL | 17.49 (14.24–421.48) μg/mL | 64.9 | 107 | 20.82 (17.45–28.23) μg/mL |  |  | 1 | 
